Test results: patent publication US20060069132A1, “Azolecarboxamide herbicides” (priority 2004, published 2006)

Legend:
rice [1] = experiment: Test C flooded paddy test; assay type: in vivo, Oryza sativa; conditions: for Plant response rating, Rice: 500 g ai/ha, visual rating after 12 to 14 days
Method in brief: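 Postemergence sprays applied to plants 2 to 18 cm tall (1- to 4-leaf stage); paddy species grown to 2-leaf stage under flooding. After 12 to 14 days in greenhouse, visual rating versus untreated controls on 0–100 scale (0 no effect, 100 complete control).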

common ragweed = experiment: Test C pre-/postemergence herbicide test; assay type: in vivo, Ambrosia elatior; design: key to Plant response rating, Ragweed: 0 = no effect, 100 = complete control; conditions: for Plant response rating, Ragweed: preemergence
Method in brief: (§1)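 Pre- and postemergence application, solvent/surfactant formulation; post at 1- to 4-leaf stage (2–18 cm). Greenhouse 12–14 d. Visual rating vs controls, 0 = no effect, 100 = complete control.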

barnyardgrass = experiment: Test A pre-/postemergence herbicide test; assay type: in vivo, Echinochloa crus-galli
Method in brief: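 Visual injury rating on a 0–100 scale (0 no effect, 100 complete control) versus untreated controls, about ten days after treatment in greenhouse. Pre: directed soil spray onto seeded sandy loam. Post: spray to runoff on plants 2–10 cm tall at one- to two-leaf stage.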

ducksalad = experiment: Test C flooded paddy test; assay type: in vivo, Heteranthera limosa; conditions: for Plant response rating, Ducksalad: 500 g ai/ha, visual rating after 12 to 14 days
large crabgrass = experiment: Test C pre-/postemergence herbicide test; assay type: in vivo, Digitaria sanguinalis; conditions: for Plant response rating, Crabgrass, Large: preemergence
Method in brief: as §1

Surinam grass = experiment: Test C pre-/postemergence herbicide test; assay type: in vivo, Urochloa decumbens; conditions: for Plant response rating, Surinam Grass: preemergence
Method in brief: as §1

eastern black nightshade = experiment: Test C pre-/postemergence herbicide test; assay type: in vivo, Solanum ptycanthum; conditions: for Plant response rating, Nightshade: preemergence
Method in brief: as §1

pigweed = experiment: Test C pre-/postemergence herbicide test; assay type: in vivo, Amaranthus retroflexus; conditions: for Plant response rating, Pigweed: preemergence
Method in brief: as §1

rice [2] = experiment: Test B pre-/postemergence herbicide test; assay type: in vivo, Oryza sativa; conditions: preemergence; for Rice plant response rating (0 to 100 scale): 125 g ai/ha; for Plant response rating, Rice: 500 g ai/ha
Method in brief: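 Plants compared with untreated controls 13–15 days post-treatment and given a visual 0–100 injury score. Applications: preemergence to seeds; postemergence at 1- to 4-leaf (2–18 cm); paddy species flooded, 2-leaf stage. Vehicle non-phytotoxic, surfactant included.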

[3] = 62 g ai/ha, scale 0 to 100 (0 no effect, 100 complete control)
[4] = 125 g ai/ha, scale 0 to 100 (0 no effect, 100 complete control)
[5] = 250 g ai/ha, scale of 0 to 100, 0 is no effect, 100 is complete control
[6] = scale 0 to 100 (0 no effect, 100 complete control)
[7] = 125 g ai/ha, scale 0 (no effect) to 100 (complete control), visual, 12 to 14 days
[8] = Preemergence, 500 g ai/ha, scale 0 to 100, 0 no effect, 100 complete control
[9] = Postemergence, 500 g ai/ha, 0 to 100 scale, 0 no effect, 100 complete control
[10] = Postemergence, 2000 g ai/ha, 0 to 100 scale, 0 no effect, 100 complete control
[11] = Preemergence, 2000 g ai/ha, visual rating, 0 to 100 scale (0 no effect, 100 complete control)
[12] = preemergence, 500 g ai/ha, visual injury, 0 to 100 scale (0 no effect, 100 complete control)
[13] = 0 = no effect, 100 = complete control
[14] = visual rating 0-100, 0 no effect, 100 complete control
[15] = 500 g ai/ha, scale 0 to 100 (0 no effect, 100 complete control), visual, 12 to 14 days

SMILES | Rice plant response rating (rice [1]; [3]) | Rice plant response rating (rice [1]; [4]) | Rice plant response rating (rice [1]; [5]) | Plant response rating, Rice (rice [1]; [6]) | Plant response rating, Ragweed (common ragweed; 250 g ai/ha, scale 0-100) | Barnyardgrass plant response rating (barnyardgrass; [9]) | Plant response rating, Barnyardgrass (barnyardgrass; [10]) | Barnyardgrass plant response rating (barnyardgrass; [11]) | Barnyardgrass plant response rating (barnyardgrass; [12]) | Ducksalad plant response rating (ducksalad; [3]) | Ducksalad plant response rating (ducksalad; [4]) | Ducksalad plant response rating (ducksalad; [5]) | Plant response rating, Ducksalad (ducksalad; [6]) | Plant response rating, Crabgrass, Large (large crabgrass; 62 g ai/ha, scale 0 to 100) | Plant response rating, Crabgrass, Large (large crabgrass; [7]) | Plant response rating, Crabgrass, Large (large crabgrass; 250 g ai/ha, scale 0-100) | Plant response rating, Surinam Grass (Surinam grass; 62 g ai/ha, scale 0 to 100) | Plant response rating, Surinam Grass (Surinam grass; 250 g ai/ha, scale 0-100) | Plant response rating, Nightshade (eastern black nightshade; 62 g ai/ha, scale 0 to 100) | Plant response rating, Nightshade (eastern black nightshade; [7]) | other results
C=CCNC(=O)c1cccc(NC(=O)c2sc(C(C)(C)C)nc2CC)c1 [Compound 207] | 30 | 45 | 50 | 60 | 60 | 40 | 70 | 80 | 70 | 55 | 80 | 80 | 85 | 80 | 90 | 100 | 0 | 0 | 60 | 75 | Plant response rating, Ragweed (common ragweed; 62 g ai/ha, scale 0 to 100): 40; Plant response rating, Ragweed (common ragweed; [7]): 50; Ragweed plant response rating (common ragweed; [8]): 100; Crabgrass, Large plant response rating (large crabgrass; [8]): 100; Plant response rating, Surinam Grass (Surinam grass; [7]): 0; Surinam Grass plant response rating (Surinam grass; [8]): 10; Plant response rating, Nightshade (eastern black nightshade; 250 g ai/ha, scale 0-100): 100; Nightshade plant response rating (eastern black nightshade; [8]): 100; Plant response rating, Pigweed (pigweed; 62 g ai/ha, scale 0 to 100): 100; Plant response rating, Pigweed (pigweed; [7]): 100; Plant response rating, Pigweed (pigweed; 250 g ai/ha, scale 0-100): 100; Pigweed plant response rating (pigweed; [8]): 100; Rice plant response rating (0 to 100 scale) (rice [2]; [13]): 50; Plant response rating, Rice (rice [2]; [14]): 70
CCNC(=O)c1cccc(NC(=O)c2sc(C(C)(C)C)nc2CC)c1 [Compound 210] | 35 | 55 | 75 | 75 | 90 | 80 | 80 | 90 | 85 | 40 | 55 | 85 | 90 | 80 | 80 | 95 | 0 | 10 | 80 | 100 | Plant response rating, Ragweed (common ragweed; 62 g ai/ha, scale 0 to 100): 0; Plant response rating, Ragweed (common ragweed; [7]): 0; Plant response rating, Ragweed (common ragweed; [15]): 90; Plant response rating, Crabgrass, Large (large crabgrass; [15]): 100; Plant response rating, Surinam Grass (Surinam grass; [7]): 5; Plant response rating, Surinam Grass (Surinam grass; [15]): 50; Plant response rating, Nightshade (eastern black nightshade; 250 g ai/ha, scale 0-100): 100; Plant response rating, Nightshade (eastern black nightshade; [15]): 100; Plant response rating, Pigweed (pigweed; 62 g ai/ha, scale 0 to 100): 100; Plant response rating, Pigweed (pigweed; [7]): 100; Plant response rating, Pigweed (pigweed; 250 g ai/ha, scale 0-100): 100; Plant response rating, Pigweed (pigweed; [15]): 100; Rice plant response rating (0 to 100 scale) (rice [2]; [13]): 60; Plant response rating, Rice (rice [2]; [14]): 80
CCc1nn(C(C)(C)C)cc1C(=O)Nc1cc(C(=O)N(CC)CC)ccc1F [Compound 223] | 0 | 0 | 45 | 75 | 100 | 10 | 55 | 80 | 55 | 0 | 0 | 25 | 55 | 100 | 100 | 100 | 50 | 70 | 100 | 100 | Plant response rating, Ragweed (common ragweed; [15]): 100; Plant response rating, Crabgrass, Large (large crabgrass; [15]): 100; Plant response rating, Surinam Grass (Surinam grass; [15]): 85; Plant response rating, Nightshade (eastern black nightshade; 250 g ai/ha, scale 0-100): 100; Plant response rating, Nightshade (eastern black nightshade; [15]): 100; Plant response rating, Pigweed (pigweed; 62 g ai/ha, scale 0 to 100): 100; Plant response rating, Pigweed (pigweed; [7]): 100; Plant response rating, Pigweed (pigweed; 250 g ai/ha, scale 0-100): 100; Plant response rating, Pigweed (pigweed; [15]): 100; Rice plant response rating (0 to 100 scale) (rice [2]; [13]): 0; Plant response rating, Rice (rice [2]; visual rating, 0 = no effect, 100 = complete control): 30
